Our source for the binding values is paper PMC6032235 (2018).

What all share (test): CD
Assay [1] relates to B1 (DNA, aptamer) GAGAGTCAATCGACCTGGGGGAGTATTGCGGAGGAAGGTACGCATTCGCTATA
Conditions: 300 mM NaCl, 5 mM MgCl2; 20 mM Tris-HCl; 5 μM DNA, 1 mM ATP, room temperature; peak shift 272 to 277 nm.

Assay [2] relates to L1 (random DNA sequence) (DNA, single strand) GAGAGTCAATCGTCTATTCGCATGAGAATTCCATTCACCGTAAG
Conditions: 300 mM NaCl, 5 mM MgCl2; 20 mM Tris-HCl; 5 μM DNA, 1 mM ATP; nonspecific peak shift 277 to 280 nm.

Assay [3] deals with B-linker (B1/B2 assembly) (DNA, aptamer) GAGAGTCAATCGACCTGGGGGAGTATTGCGGAGGAAGGTACGCATTCGCTATA/GAGAGTCAATCGTATAGCGAATGCGT
Conditions: 300 mM NaCl, 5 mM MgCl2; 20 mM Tris-HCl; 5 μM DNA, 1 mM ATP; peak shift 273 to 279 nm; CD alone not conclusive.

Each structure is given as a SMILES string.

With `Nc1ncnc2c1ncn2[C@@H]1O[C@H](COP(=O)(O)OP(=O)(O)OP(=O)(O)O)[C@@H](O)[C@H]1O`, the figures for the binding result in assay [1], in assay [2] and in assay [3] were “yes”, “no” and “yes”, respectively.
